For test [1], the system named is R5 and dual-tropic (R5/X4) HIV-1 strains. The conditions noted are these: monocyte-derived macrophages (MDMs), microglia, primary CD4(+) T cells; cited from earlier work.
The conditions of test [2]: in vitro; cited from earlier work.
The next test has as its target CD4 receptor (Homo sapiens, UniProt P01730). The conditions noted are these: in vitro; cited from earlier work.
The subject of test [3] is rabbit anti peptide T antiserum. Conditions: compared with the other fractions of the same adduct, FIG. 14.
Experimental: HPLC fractions of succinic acid-(Glu)n conjugated to peptide T were analyzed by ELISA (i.e., enzyme linked immunosorbent assay). HPLC fractions of conjugated peptide T were diluted (1:10) in coating buffer [1.59 g sodium carbonate (Na2CO3), 2.93 g sodium bicarbonate (NaHCO3) Dissolve in 900 ml H2O, adjust pH to 9.6 with HCl and make up to 1 L]. Control net peptide T was dissolved in coating buffer with a concentration of 5 μg/ml. 100 μl of each of two peptide T preparations was added to each well of a 96-well microtiter plate (Nunc). The plate was covered with a plate sealer and incubated at 4° C. over night. Following 3 washes with PBS-Tween [phosphate buffer saline: 8.0 g sodium chloride (NaCl), 0.2 g monobasic potassium phosphate (KH2PO4), 1.15 g dibasic sodium phosphate (Na2HPO4), 0.2 g potassium chloride (KCl), Dissolve in 900 ml H2O, adjust pH to 7.4 with NaOH or HCl and make up to 1 L, PBS+0.5 ml Tween 20 per liter]. 100 μl of diluted rabbit anti peptide T antiserum (1:250, in assay diluent, 0.1% BSA and 0.1% sodium azide (NaN3) in PBS) was added to each well. The plate was sealed and incubated for 1 hour at room temperature. Following 5 washes, each well was added with 100 μl of diluted goat anti rabbit IgG alkaline phosphatase conjugate (KPL, 1:1000 dilution in assay diluent). The plate was sealed and incubated for 30 min. […] Optical density (OD) was then read at 405 nm.
For a further test, the system named is Balb/c mice. Conditions: i.p. 0.5 mg per immunization, day 0, 8 and 21, Freund's adjuvant, antiserum 1:100, FIG. 15.

Results on three substances are retold here after US7314956B2, “Multifunctional carrier for the delivery of a pharmacological agent or genetic material into a cell” (Vaxim, Inc., priority 2001, dated 2008).

Like-named read-outs stand apart in the source and are kept apart here.

Experimental for Balb/c mice: Balb/c mice were immunized intraperitoneally with succinic acid-(glu)n-Peptide T at 0.5 mg per immunization and per animal. The antigen complex was administered with complete Freund's adjuvant (first injection) and with incomplete Freund's adjuvant for booster injections. Mice were immunized 3 times at day 0, day 8 and day 21. Mice were bled via tail vein and 15 μl of blood collected by a capillary tube was transferred into 135 μl PBS in a 12×75 tissue culture tube. Diluted mouse sera were collected after centrifugation for 10 min.
A polystyrene 96-well plate (Nunc) was coated with free peptide T at 10 μg/ml in coating (pH 9.6) overnight at 4° C. The plate was washed 3 times with wash buffer. Afterwards, 100 μl of diluted (1:100 in assay diluent) mouse antiserum from each mouse was then added to each well (each serum sample was assayed in duplicate) and incubated for 2 hours at room temperature. The plates were then washed 5 times with wash buffer. Goat anti-mouse IgG conjugated to alkaline phosphate (KPL) was diluted 1:1000 in PBS with 1% bovine serum albumin, added to the wells, and incubated for 30 min at room temperature followed by six washes with wash buffer. Substrate solution (p-Nitrophenyl phosphate, 2 mg/ml in substrate buffer) was then added. Absorbance was then measured using a microplate reader at 405 nm.

“D-Ala-Ser-Thr-Thr-Thr-Asn-Tyr-Thr-NH2 [Peptide T]”: the “replication of HIV-1 strains” value in test [1] is given as “inhibits replication”. Also, the chemotactic activity entry in test [2] was “chemotactic activity”. Further, the “binding of isolated gp120 and HIV-1 to the CD4 receptor” value on CD4 receptor was “inhibition of the binding”.

“Succinic Acid-(Glu)2-(Glu)4-(Glu)8-(Peptide T)16 [Shell 3]”: the “immunoreactivity (optical density at 405 nm)” value in test [3] (HPLC Fraction 3 (highest retention time)) was “highest immunoreactivity”. In the test on Balb/c mice, the “immune response (anti-peptide T antibodies, ELISA OD at 405 nm)” value was “some mice show greater immune response”.

For the substance “Succinic Acid-(Glu)2-(Glu)4-(Peptide T)8 [Shell 2]”, the “immunoreactivity (optical density at 405 nm)” value in test [3] (HPLC Fraction 2 (highest retention time)) is reported as “highest immunoreactivity”. The “immune response (anti-peptide T antibodies, ELISA OD at 405 nm)” value with Balb/c mice is “some mice show greater immune response”.
